Results as given in patent US7579432B2, “Cyclic peptides as G-protein-coupled receptor antagonists” (Promics Pty Limited, priority 2001, dated 2009).

Tests used:
dermal Arthus reaction = assay: Reverse passive dermal Arthus reaction in the rat; assay type: in vivo; conditions: intravenous, oral and topical
[1] = system: neutropenia caused by i.v. LPS; assay: LPS-induced neutropenia (endotoxaemia model); assay type: in vivo, rat; conditions: topical in 50% DMSO/50% H2O, 60 min before LPS 1 mg/kg i.v.
Procedure: The in vivo pharmacological properties of cyclic antagonists were examined following topical dermal administration. A model of endotoxaemia was used, in which 1 mg/kg Escherichia coli […] (LPS; serotype 55:B5, Sigma, USA, stored at 100 mg ml^−1 in dH2O, 4° C.), was injected i.v into a rat, resulting in acute changes in circulating PMN levels and blood pressure. These parameters were measured in the presence and absence of C5aR antagonists (1 mg/kg i.v or 50 mg/kg/rat topically). […] Female Wistar rats weighing between 200-250 g were used for in vivo testing of all C5a receptor antagonists. Rats were anaesthetized using the procedure described above, and transferred on to a heating pad to ensure that body temperature was maintained throughout the experiment. A catheter was inserted in the femoral vein, secured with a suture and flushed with 100 μL of heparinised saline. […] All agents infused i.v were injected over a 2 min period, and were followed with a subsequent injection of 100 μL of saline to ensure complete delivery of the drug. Whole blood samples (0.1 mL) were collected from the tail vein at the time of drug and LPS or C5a administration. Samples were collected at −15, 0, 5, 10, 15, 30, 60, 90, 120 and 150 min relative to the injection of LPS (zero time), and placed in tubes containing heparin (500 Units/mL). To isolate PMNs, 100 μL of blood was layered on to 200 μL of Histopaque 1077 (Sigma U.S.A.) solution and centrifuged at 400×g for 30 min min at room temperature (25° C.). The supernatant layer of platelet-rich plasma, the monocyte and lymphocyte interface and the separation layer of Histopaque were removed and discarded, leaving the PMN and red blood-cell rich layer. […] The number of PMNs was counted on a haemocytometer. The number of cells at each time point was calculated as a percentage of the total number of cells at time zero, prior to complement challenge or LPS. […] Circulating PMN levels were monitored for 150 min following LPS injection, and the percentage change in PMN levels from zero time, when LPS was injected, was calculated.

[2] = system: lower limb ischemia-reperfusion (I/R); assay: Bilateral hindlimb ischemia-reperfusion injury in rats
Procedure: Rats were subjected to 2 hours bilateral hindlimb ischemia and 4 hours reperfusion. […] (1 mg/kg) i.v., either 10 min before ischemia or 10 min prior to reperfusion, or orally (10 mg/kg) 30 min prior to ischemia. Levels of circulating creatine kinase (CK), lactate dehydrogenase (LDH), alanine and aspartate aminotransferase (ALT/AST), creatinine, blood urea nitrogen (BUN), polymorphonuclear leukocytes (PMNs) and calcium (Ca^++) and potassium (K^+) ions were determined. These biochemical indices are known to reflect tissue or organ injury following I/R events. Other parameters measured included urinary protein levels, muscle edema and myeloperoxidase (MPO) concentrations in the lung, liver and muscle along with liver homogenate TNF-α concentrations.
The study was performed in accordance with guidelines from the National Health & Medical Research Council of Australia, and the experimental protocol approved by the University of Queensland Animal Ethics Committee. Female Wistar rats weighing 250-300 g were fasted overnight before being anaesthetized with the i.p. injection of 6 mg/kg xylazine and 120 mg/kg ketamine. Anesthesia was maintained throughout the study by additional injections of ketamine. […] Bilateral hindlimb ischemia was then induced through the application of latex o-rings (marking rings; Hayes Veterinary Supplies, Brisbane, Australia) above the greater trochanter of each hind limb. Following 2 hours of ischemia, the latex rings were cut and removed and limbs allowed to reperfuse for 4 hours. Six experimental groups were used: • (a) sham-operated, • (b) ischemia-only, • (c) I/R-only, • (d) I/R+C5a antagonist (1 mg/kg, i.v.) administered 10 min prior to ischemia, • (e) I/R+C5a antagonist (10 mg/kg, p.o.) administered 30 min prior to ischemia, and • (f) I/R+C5a antagonist (1 mg/kg, i.v.) administered 10 min prior to reperfusion.
All other groups underwent 2 hours of ischemia and 4 hours of reperfusion. Sham-operated, ischemia-only and I/R groups were infused with 7% ethanol/saline 10 min prior to ischemia, instead of drug. Blood was collected throughout the study from the tail vein, and serum or plasma was stored at either 4° C. or −20° C. for later biochemical assays. Urine was collected over the last hour of the study for the determination of urinary protein levels. At the completion of the experiment, rats were euthanased, and sections of the lungs, liver and gastrocnemius muscle removed and weighed for edema, neutrophil accumulation and liver TNF-α studies.
All experimental results are expressed as means±standard error of the mean (SEM). Data analysis was performed using GraphPad Prism 3.0 software (GraphPad Software, Inc. USA). Statistical comparisons were made to sham-operated and I/R-only groups, using a one-way analysis of variance followed by a Dunnett comparison post-test analysis. Statistical significance was assessed at P<0.05.
Circulating levels of creatine kinase (CK) were measured in serum samples taken immediately after ischemia, following 1, 2 and 3 hours reperfusion, and at the completion of the study using a […] kit (Sigma, St. Louis, USA) according to the manufacturer's instructions. Serum was also taken 10 min after tourniquet release for CK measurement in I/R-only animals. A 1:5 dilution was used for samples taken after 2 hours reperfusion.

[3] = I/R + 1 mg/kg i.v. pre-ischemia, 4 hours reperfusion
[4] = I/R + 1 mg/kg i.v. pre-reperfusion, 4 hours reperfusion
[5] = I/R + 10 mg/kg p.o. pre-ischemia, 4 hours reperfusion
[6] = i.v. 1 mg/kg just prior to reperfusion
[7] = prior to ischemia, i.v. 1 mg/kg or orally 10 mg/kg

CC(=O)N[C@@H](Cc1ccccc1)C(=O)N[C@H]1CCCNC(=O)[C@H](CCCNC(=N)N)NC(=O)[C@H](Cc2c[nH]c3ccccc23)NC(=O)[C@@H](CC2CCCCC2)NC(=O)[C@@H]2CCCN2C1=O [Compound 1, Ac-Phe-[Orn-Pro-dCha-Trp-Arg]]
vascular leakage associated with a dermal Arthus reaction (dermal Arthus reaction; FIG. 1): inhibition | rise in circulating TNFα associated with a dermal Arthus reaction (dermal Arthus reaction; FIG. 2): inhibition | neutropenia response to i.v. LPS [1]: inhibited the neutropenia response | Plasma Creatinine [2, 3]: 1.07 ± 0.07 mg/dL | Proteinuria [2, 3]: 36.4 ± 11.4 mg/dL | Serum BUN [2, 3]: 23.6 ± 1.6 mg/dL | Serum Ca++ [2, 3]: 2.46 ± 0.04 mmol/L | Serum K+ [2, 3]: 6.13 ± 0.18 mmol/L | Plasma Creatinine [2, 4]: 1.22 ± 0.05 mg/dL | Proteinuria [2, 4]: 41.2 ± 11.4 mg/dL | Serum BUN [2, 4]: 22.0 ± 2.2 mg/dL | Serum Ca++ [2, 4]: 2.45 ± 0.10 mmol/L | Serum K+ [2, 4]: 5.02 ± 0.32 mmol/L | Plasma Creatinine [2, 5]: 1.14 ± 0.14 mg/dL | Proteinuria [2, 5]: 45.8 ± 9.8 mg/dL | Serum BUN [2, 5]: 21.8 ± 2.1 mg/dL | Serum Ca++ [2, 5]: 2.49 ± 0.04 mmol/L | Serum K+ [2, 5]: 5.57 ± 0.58 mmol/L | MPO activity in hindlimb muscles, lungs and liver vs I/R-only rats ([2]; all 3 drug-treated groups): significant decreases | circulating PMN numbers vs I/R-only rats ([2]; all 3 drug-treated groups, 4 hours reperfusion): significantly decreased | adverse effects of the drug alone (changes in injury markers vs sham-operated animals) ([2]; drug alone): no adverse effects | circulating creatine kinase (CK) levels vs I/R-only rats [2, 6]: significant inhibition | circulating lactate dehydrogenase (LDH) levels vs I/R-only rats [2, 6]: significant inhibition | circulating creatine kinase (CK) levels vs I/R-only rats [2, 7]: significantly decreased levels | circulating lactate dehydrogenase (LDH) levels vs I/R-only rats [2, 7]: significantly decreased levels
